# Results published in patent US10774051B2, “6-membered heterocyclic derivatives and pharmaceutical composition comprising the same” (Shionogi & Co., Ltd., priority 2015, dated 2020).
# Molecular target: human P2X7 receptor (Homo sapiens, UniProt Q99572, R270H/Y155H)
# Experiment: Evaluation of human P2X7 receptor inhibitory activity (Yo-Pro uptake, BzATP stimulation, FLIPR TETRA)
# Type: cell-based
# Conditions: 1321N1 cells stably expressing human P2X7 receptor; BzATP stimulation, Yo-Pro uptake; read-out: IC50 (antagonistic activity for the human P2X7 receptor)
# How it was run: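 1321N1 cells stably expressing human P2X7 (T606C/G952A SNP variant), in HBSS buffer pH 7.4-7.5 with Yo-Pro, stimulated with BzATP; compound added 8 min after agonist. Fluorescence followed for 20 min on FLIPR; max-minus-min change gave % inhibition, IC50 by logistic fit.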
row,Compound,IC50
1,COc1cn(Cc2ccccc2)c(Nc2cc3[nH]ccc3cc2C)nc1=O [Compound I-0618],0.007 µM
2,Cc1nc2cc(C)c(Nc3nc(=O)c(F)cn3Cc3ccccc3)cc2s1 [Compound I-0788],0.012 µM
3,COc1cn(Cc2cc(F)cc(F)c2)c(Nc2cc3c(cc2C)OCC3)nc1=O [Compound I-0865],0.008 µM
4,COc1cn(Cc2ccc(F)c(Cl)c2)c(N[C@@H]2CCCc3ccccc32)nc1=O [Compound I-0336],0.12 µM
5,COc1cn(Cc2ccccc2)c(Nc2ccccc2SC)nc1=O [Compound I-0382],0.35 µM

# Same assay, conditions: 1321N1 cells stably expressing human P2X7 receptor; BzATP stimulation, Yo-Pro uptake; read-out: IC50 (antagonistic activity for the human P2X7 receptor), class symbol
row,Compound,IC50
1,COc1cccc(Nc2nc(=O)c(OC)cn2Cc2cc(F)cc(F)c2)c1C [Compound I-0438],< 0.01 µM
2,COc1cn(Cc2ccccc2)c(Nc2cc3sc(C)nc3cc2C)nc1=O [Compound I-0431],0.01 to 0.1 µM
3,COc1cn(Cc2ccccc2)c(Nc2cc(S(C)(=O)=O)ccc2C)nc1=O [Compound I-0513],0.1 to 0.5 µM
4,COc1cn(Cc2ccccc2)c(Nc2cc(Br)ccc2C)nc1=O [Compound I-0386],0.01 to 0.1 µM
5,COc1cn(Cc2ccc(F)c(Cl)c2)c(Nc2ccc(N(C)C)cc2C)nc1=O [Compound I-0248],0.01 to 0.1 µM
6,COc1cn(Cc2ccc(F)cc2)c(Nc2cc(C)ccc2C)nc1=O [Compound I-0332],0.01 to 0.1 µM
7,COc1cn(Cc2ccccc2)c(Nc2cccc3[nH]c(-c4ccccc4)cc23)nc1=O [Compound I-0527],0.5 to 1 µM
8,CCc1ccc(CC)c(Nc2nc(=O)c(OC)cn2Cc2ccccc2)c1 [Compound I-0211],< 0.01 µM
9,COCCNC(=O)c1cn(Cc2ccccc2)c(Nc2cccc(Cl)c2C)nc1=O [Compound I-0076],0.1 to 0.5 µM
10,COc1cn(Cc2ccc(F)c(F)c2)c(Nc2cccc(C)c2Cl)nc1=O [Compound I-0482],< 0.01 µM
11,COc1ccc(Nc2nc(=O)c(OC)cn2Cc2cc(F)c(F)c(F)c2)c(C)c1 [Compound I-0581],< 0.01 µM
12,COc1cc(C)c(Nc2nc(=O)c(F)cn2Cc2ccc(F)c(Cl)c2)cc1C [Compound I-0349],< 0.01 µM
13,COc1cn(Cc2ccccc2)c(Nc2cc(Cl)c(Cl)cc2C)nc1=O [Compound I-0423],0.01 to 0.1 µM
14,COc1cn(Cc2ccccc2)c(Nc2cc(Cl)c(Cl)cc2C)nc1=O [Compound I-0448],0.01 to 0.1 µM
15,COc1cn(Cc2cccc(Cl)c2)c(Nc2cc(C)c(Cl)cc2C)nc1=O [Compound I-0172],0.01 to 0.1 µM
16,COc1cn(Cc2ccccc2)c(Nc2cc(F)c(F)cc2C)nc1=O [Compound I-0359],0.5 to 1 µM
17,CCc1cc(OC)ccc1Nc1nc(=O)c(OC)cn1Cc1cc(F)cc(F)c1 [Compound I-0440],< 0.01 µM

row,Compound,IC50
1,COc1cn(Cc2ccccc2)c(Nc2cc(-n3c(C)ccc3C)ccc2C)nc1=O [Compound I-0525],0.1 to 0.5 µM
2,COc1cn(Cc2cc(F)cc(F)c2)c(Nc2ccc(N3CCOCC3)cc2C)nc1=O [Compound I-0543],0.01 to 0.1 µM
3,COc1cn(Cc2cccc(Cl)c2)c(Nc2cc(-c3nnco3)ccc2C)nc1=O [Compound I-0444],0.01 to 0.1 µM
4,COc1cc(C)c(Nc2nc(=O)c(F)cn2Cc2ccc(F)c(Cl)c2)cc1OC [Compound I-0309],< 0.01 µM
5,Cc1cc(C)c(Nc2nc(=O)c(C(=O)NCc3ccccc3)cn2Cc2ccccc2)cc1C [Compound I-0284],0.5 to 1 µM
6,COc1cn(Cc2cccc(F)c2)c(Nc2cc(C)c(F)cc2C)nc1=O [Compound I-0442],< 0.01 µM
7,Cc1cc2c(cc1Nc1nc(=O)c(F)cn1Cc1cccc(Cl)c1)OCCO2 [Compound I-0368],0.01 to 0.1 µM
8,COc1cn(Cc2ccc(F)c(Cl)c2)c(Nc2cccc(C(F)(F)F)c2C)nc1=O [Compound I-0468],0.01 to 0.1 µM
9,COc1cn(Cc2ccccc2)c(Nc2cccc(Oc3ccccc3)c2C)nc1=O [Compound I-0138],0.5 to 1 µM
10,COc1cn(Cc2ccc(F)c(Cl)c2)c(Nc2cc(-c3ncco3)ccc2C)nc1=O [Compound I-0549],< 0.01 µM
11,COc1cccc(Nc2nc(=O)c(OC)cn2Cc2ccccc2)c1Cl [Compound I-0115],0.01 to 0.1 µM
12,Cc1c(Cl)cccc1Nc1nc(=O)c(OC(C)C)cn1Cc1ccccc1 [Compound I-0142],0.01 to 0.1 µM
13,COc1cn(Cc2ccccc2)c(Nc2cc(C)cc(C)c2C)nc1=O [Compound I-0298],0.01 to 0.1 µM
14,COc1cc(C)c(Nc2nc(=O)c(OC)cn2Cc2cccc(Cl)c2)cc1OC [Compound I-0208],< 0.01 µM
15,CCOc1cc(C)c(Nc2nc(=O)c(OC)cn2Cc2cccc(Cl)c2)cc1C [Compound I-0259],< 0.01 µM
16,COc1cn(Cc2ccc(F)c(Cl)c2)c(Nc2cc(C(C)(C)C)ccc2C)nc1=O [Compound I-0501],0.01 to 0.1 µM

# Same assay, conditions: antagonistic activity for the human P2X7 receptor; read-out: IC50
row,Compound,IC50
1,CCOc1ccc(F)c(Nc2nc(=O)c(F)cn2Cc2cc(F)c(F)c(F)c2)c1 [Compound I-1215],< 0.01 µM
2,CCOc1ccc(Nc2nc(=O)c(F)cn2Cc2cc(F)c(F)c(F)c2)c(C)c1 [Compound I-1034],< 0.01 µM
3,COc1cn(Cc2cc(F)c(F)c(F)c2)c(Nc2cc3sc(C(F)F)nc3cc2C)nc1=O [Compound I-0934],0.01 to 0.1 µM
4,CCc1cc2c(cc1Nc1nc(=O)c(OC)cn1Cc1ccccc1)OCO2 [Compound I-0687],0.01 to 0.1 µM
5,COc1cn(Cc2cc(F)c(F)c(F)c2)c(Nc2c(C)ccc(C)c2F)nc1=O [Compound I-0929],< 0.01 µM
6,C=C(C)c1ccc(C)c(Nc2nc(=O)c(OC)cn2Cc2cc(F)cc(F)c2)c1 [Compound I-0749],0.01 to 0.1 µM
7,Cc1cc2c(cc1Nc1nc(=O)c(C#N)cn1Cc1cc(F)c(F)c(F)c1)COC2 [Compound I-1130],0.01 to 0.1 µM
8,O=c1nc(Nc2cccc3c2CCN3)n(Cc2cc(F)cc(F)c2)cc1F [Compound I-1074],0.01 to 0.1 µM
9,Cc1ccc(Cl)cc1Nc1nc(=O)c(F)cn1Cc1cc(F)c(F)c(F)c1 [Compound I-1209],< 0.01 µM
10,COc1ccc(Nc2cc(=O)c(OC)cn2Cc2ccc(F)c(Cl)c2)c(C)c1 [Compound I-0944],0.1 to 0.5 µM
11,COc1ccc(C)c(Nc2nc(=O)c(F)cn2Cc2cc(F)cc(F)c2)c1 [Compound I-1069],0.01 to 0.1 µM
12,CCOc1cc(C)c(Nc2nc(=O)c(F)cn2Cc2ccc(F)c(Cl)c2)cc1F [Compound I-1060],0.01 to 0.1 µM
13,Cc1cc(C(F)F)ccc1Nc1nc(=O)c(F)cn1Cc1cc(F)c(F)c(F)c1 [Compound I-1237],< 0.01 µM
14,COc1cn(Cc2cc(F)cc(Cl)c2)c(Nc2cc3c(cc2C)OCCO3)nc1=O [Compound I-0710],0.01 to 0.1 µM
15,CCOc1cc(Nc2nc(=O)c(OC)cn2Cc2ccccc2)c(C)cc1C [Compound I-0790],< 0.01 µM
16,COc1ccc(Nc2nc(=O)cnn2Cc2cc(F)cc(F)c2)c(C)c1 [Compound I-1271],< 0.01 µM
17,COCCn1ccc2c(C)c(Nc3nc(=O)c(F)cn3Cc3cc(F)cc(F)c3)ccc21 [Compound I-1229],< 0.01 µM
18,Cc1nn(Cc2cc(F)c(F)c(F)c2)c(Nc2ccc3[nH]ccc3c2C)nc1=O [Compound I-1262],< 0.01 µM
19,CCOc1cn(Cc2ccc(F)c(Cl)c2)c(Nc2cc(OC)c(OC)cc2C)nc1=O [Compound I-0795],< 0.01 µM
20,COc1cc(C)c(Nc2nc(=O)c(C(N)=O)cn2Cc2cc(F)c(F)c(F)c2)cc1C [Compound I-1081],0.01 to 0.1 µM
21,Cc1ccc(Nc2nc(=O)c(F)cn2Cc2cc(F)c(F)c(F)c2)c(C)c1 [Compound I-1193],< 0.01 µM

row,Compound,IC50
1,Cc1c(Nc2nc(=O)c(F)cn2Cc2cc(F)cc(F)c2)ccc2scnc12 [Compound I-1202],< 0.01 µM
2,Cc1ccc(N2CC3CCC2C3)cc1Nc1nc(=O)c(F)cn1Cc1cc(F)c(F)c(F)c1 (stereo not shown) [Compound I-1053],0.01 to 0.1 µM
3,Cc1c(Nc2nc(=O)ccn2Cc2cc(F)cc(F)c2)ccc2[nH]ccc12 [Compound I-1171],< 0.01 µM
4,COc1cn(Cc2cc(F)cc(F)c2)c(Nc2cc(-c3cccn(C)c3=O)ccc2C)nc1=O [Compound I-0589],< 0.01 µM
5,Cc1ccc(CO)cc1Nc1nc(=O)cnn1Cc1cc(F)c(F)c(F)c1 [Compound I-1255],< 0.01 µM
6,COc1cn(Cc2ccc(F)c(F)c2)c(Nc2cc(-c3cscn3)ccc2C)nc1=O [Compound I-0751],< 0.01 µM
7,COc1cn(Cc2ccc(F)c(F)c2)c(Nc2ccccc2C)nc1=O [Compound I-0685],0.01 to 0.1 µM
8,COc1cn(Cc2cc(F)cc(Cl)c2)c(Nc2cccc3c(=O)[nH]ccc23)nc1=O [Compound I-0651],0.01 to 0.1 µM
9,COc1cn(Cc2cc(F)cc(Cl)c2)c(Nc2cc(OC(F)F)c(C)cc2C)nc1=O [Compound I-0877],0.01 to 0.1 µM
10,COc1cnc(Nc2cccc(Cl)c2C)n(Cc2cccc(Cl)c2)c1=O [Compound I-0969],0.5 to 1 µM
11,COc1cn(Cc2cc(F)c(F)c(F)c2)c(Nc2ccc(Oc3ccnc(F)c3)cc2C)nc1=O [Compound I-0933],0.1 to 0.5 µM
12,COc1cn(Cc2ccc(F)c(Cl)c2)c(Nc2ccccc2Cc2ccccn2)nc1=O [Compound I-0595],< 0.01 µM
13,COc1cn(Cc2cc(F)cc(F)c2)c(Nc2cc(-c3ccnn3C)ccc2C)nc1=O [Compound I-0784],0.01 to 0.1 µM
14,COc1cc(C)c(Nc2nc(=O)c(OC)cn2Cc2ccc(F)c(Cl)c2)cc1F [Compound I-0719],< 0.01 µM
15,COc1cn(Cc2ccc(F)c(F)c2)c(Nc2cc(Cl)cc3[nH]ccc23)nc1=O [Compound I-0820],0.01 to 0.1 µM
16,COc1cn(Cc2cc(F)cc(F)c2)c(Nc2cc(N3CCCC3=O)ccc2C)nc1=O [Compound I-0648],0.01 to 0.1 µM
17,COc1ccc(Nc2nc(=O)c(C)cn2Cc2cc(F)c(F)c(F)c2)c(C)c1 [Compound I-1154],< 0.01 µM
18,COc1ccc(Nc2nc(=O)cnn2Cc2cc(F)cc(Cl)c2)c(C)c1 [Compound I-1269],0.01 to 0.1 µM
19,COc1cn(Cc2ccccc2)c(Nc2cc(-c3ccc(C)o3)ccc2C)nc1=O [Compound I-0658],0.01 to 0.1 µM
20,CCOC(=O)c1cn(Cc2cc(F)c(F)c(F)c2)c(Nc2ccc(OC)cc2C)nc1=O [Compound I-1080],0.01 to 0.1 µM
